In ChEMBL document CHEMBL5107956, “Natural products from mangrove sediments-derived microbes: Structural diversity, bioactivities, biosynthesis, and total synthesis” (Eur J Med Chem, 2022):
≈ marks a conversion by molar mass, not a printed value.

Legend:
[1] = system: Colletotrichum gloeosporioides; assay: Antifungal activity against Colletotrichum gloeosporioides assessed as inhibition of fungal growth measured after 72 hrs by micro plate reader analysis; assay type: functional
Candida albicans = assay: Antifungal activity against Candida albicans assessed as fungal growth inhibition measured after 20 hrs; assay type: functional
HL-60 [2] = assay: Antiproliferative activity against human HL-60 cells assessed as cell growth inhibition measured after 72 hrs by CCK-8 assay; assay type: functional, cell-based; conditions: HL-60, 72 h
K562 = assay: Antiproliferative activity against human K562 cells assessed as cell growth inhibition measured after 72 hrs by CCK-8 assay; assay type: functional, cell-based; conditions: K562, 72 h
ACHN [3] = assay: Antiproliferative activity against human ACHN cells assessed as cell growth inhibition measured after 72 hrs by CCK-8 assay; assay type: functional, cell-based
20S proteasome = assay: Inhibition of 20S proteasome (unknown origin) by fluorescence based assay; assay type: protein-complex assay, Homo sapiens
SMMC-7721 = assay: Antiproliferative activity against human SMMC-7721 cells assessed as cell growth inhibition; assay type: functional, cell-based
[4] = Cytotoxicity against human HM02 cells assessed as cell growth inhibition; assay type: functional
HepG2 = assay: Cytotoxicity against human HepG2 cells assessed as cell growth inhibition; assay type: functional
MCF7 = assay: Cytotoxicity against human MCF7 cells assessed as cell growth inhibition; assay type: functional, cell-based
[5] = Toxicity in brine shrimp assessed as induction of lethality; conditions: artemia salina; read-out: LD50 (the source's name)
RAW264.7 = assay: Antiinflammatory activity against LPS-induced mouse RAW264.7 cells assessed as inhibition of NO production measured after 24 hrs […]; assay type: functional, cell-based; conditions: RAW264.7, 24 h
[6] = biological target: Phosphotyrosine-protein phosphatase PTPB (Mycobacterium tuberculosis, UniProt P96830); assay: Inhibition of N-terminal His6-tagged Mycobacterium tuberculosis H37Rv PTPB using 6,8-difluoromethylumbelliferyl phosphate as substrate incubated for 30 mins by fluorescence based analysis
SGC-7901 = assay: Cytotoxicity against human SGC-7901 cells assessed as cell growth inhibition measured after 48 hrs by MTT assay; assay type: functional, cell-based; conditions: SGC-7901, 48 h
HCT-116 = assay: Cytotoxicity against human HCT-116 cells assessed as cell growth inhibition by SRB assay; assay type: functional, cell-based
SW-620 = assay: Cytotoxicity against human SW-620 cells assessed as cell growth inhibition by SRB assay; assay type: functional, cell-based
[7] = biological target: Angiotensin-converting enzyme (Homo sapiens, UniProt P12821); assay: Inhibition of ACE (unknown origin) using hippuryl-histidyl-leucine as substrate pre-incubated with compound for 10 mins followed by substrate addition measured after 60 mins by HPLC analysis
ACHN [8] = assay: Antiproliferative activity against human ACHN cells assessed as cell growth inhibition; assay type: functional, cell-based
[9] = system: Trypanosoma brucei brucei; assay: Antitrypanosomal activity against Trypanosoma brucei brucei GUTat3.1 assessed as parasite growth inhibition measured after 24 hrs by alamar blue staining based analysis; assay type: functional, organism-based; conditions: GUTat3.1, 24 h
[10] = system: Pseudopestalotiopsis theae; assay: Antifungal activity against Pestalotiopsis theae assessed as fungal cell growth inhibition; assay type: functional; conditions: read-out: ED50 (the source's name)
HL-60 [11] = assay: Cytotoxicity against human HL-60 cells assessed as cell growth inhibition measured after 72 hrs by MTT assay; assay type: functional, cell-based; conditions: HL-60, 72 h
NCI-H1975 = assay: Cytotoxicity against human NCI-H1975 cells assessed as cell growth inhibition measured after 72 hrs by MTT assay; assay type: functional, cell-based; conditions: NCI-H1975, 72 h
A549 = assay: Antiproliferative activity against human A549 cells assessed as cell growth inhibition by MTT assay; assay type: functional, cell-based
HL-60 [12] = assay: Antiproliferative activity against human HL-60 cells assessed as cell growth inhibition by MTT assay; assay type: functional, cell-based
NCI-H460 = assay: Cytotoxicity against human NCI-H460 cells assessed as cell growth inhibition; assay type: functional, cell-based
SF-268 = assay: Cytotoxicity against human SF-268 cells assessed as cell growth inhibition; assay type: functional, cell-based
OS-RC-2 = assay: Antiproliferative activity against human OS-RC-2 cells assessed as cell growth inhibition measured after 72 hrs by CCK-8 assay; assay type: functional, cell-based; conditions: OS-RC-2, 72 h

Chain of Phosphotyrosine-protein phosphatase PTPB (P96830 whole entry): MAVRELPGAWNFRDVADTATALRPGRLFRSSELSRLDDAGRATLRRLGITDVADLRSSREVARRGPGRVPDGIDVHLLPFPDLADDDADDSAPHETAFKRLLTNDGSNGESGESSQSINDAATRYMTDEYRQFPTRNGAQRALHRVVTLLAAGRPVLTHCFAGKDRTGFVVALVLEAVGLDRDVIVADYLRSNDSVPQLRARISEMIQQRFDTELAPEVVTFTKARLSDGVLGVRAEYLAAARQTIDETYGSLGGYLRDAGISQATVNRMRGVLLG
Chain of Angiotensin-converting enzyme (P12821 whole entry): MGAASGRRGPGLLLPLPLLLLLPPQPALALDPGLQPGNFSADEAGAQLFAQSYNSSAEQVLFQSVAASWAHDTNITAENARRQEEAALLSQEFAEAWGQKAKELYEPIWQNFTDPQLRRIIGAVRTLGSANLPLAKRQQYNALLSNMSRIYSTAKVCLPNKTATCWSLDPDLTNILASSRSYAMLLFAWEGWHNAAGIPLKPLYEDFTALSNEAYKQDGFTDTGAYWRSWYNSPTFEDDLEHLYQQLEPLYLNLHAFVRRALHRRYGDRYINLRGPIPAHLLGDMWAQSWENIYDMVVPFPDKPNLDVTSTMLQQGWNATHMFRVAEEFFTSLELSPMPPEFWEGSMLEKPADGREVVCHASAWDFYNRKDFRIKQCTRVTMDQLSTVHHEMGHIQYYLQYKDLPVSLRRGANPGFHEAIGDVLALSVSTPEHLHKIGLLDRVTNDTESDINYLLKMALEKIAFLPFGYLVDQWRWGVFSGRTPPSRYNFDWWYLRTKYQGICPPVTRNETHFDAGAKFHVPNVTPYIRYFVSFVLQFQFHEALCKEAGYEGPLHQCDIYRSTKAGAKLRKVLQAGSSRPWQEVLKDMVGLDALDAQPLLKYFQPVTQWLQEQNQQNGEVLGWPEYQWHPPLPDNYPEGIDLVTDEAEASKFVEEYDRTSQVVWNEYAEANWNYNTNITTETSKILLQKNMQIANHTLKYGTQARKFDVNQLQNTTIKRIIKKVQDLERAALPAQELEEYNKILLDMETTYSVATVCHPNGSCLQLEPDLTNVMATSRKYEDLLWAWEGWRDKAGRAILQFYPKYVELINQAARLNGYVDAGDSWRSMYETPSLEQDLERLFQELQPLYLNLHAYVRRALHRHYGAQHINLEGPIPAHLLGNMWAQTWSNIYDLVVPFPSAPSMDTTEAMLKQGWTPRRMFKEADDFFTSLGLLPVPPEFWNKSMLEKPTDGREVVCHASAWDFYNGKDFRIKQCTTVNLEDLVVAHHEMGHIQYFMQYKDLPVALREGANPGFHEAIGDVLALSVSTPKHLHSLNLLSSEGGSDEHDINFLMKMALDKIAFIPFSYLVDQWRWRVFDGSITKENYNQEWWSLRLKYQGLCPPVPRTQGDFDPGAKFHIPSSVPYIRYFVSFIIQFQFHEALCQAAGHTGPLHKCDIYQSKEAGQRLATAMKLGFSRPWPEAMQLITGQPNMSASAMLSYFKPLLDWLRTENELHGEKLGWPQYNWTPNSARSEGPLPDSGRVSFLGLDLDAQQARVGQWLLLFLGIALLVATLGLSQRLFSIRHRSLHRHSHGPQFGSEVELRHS

SMILES: CC(=O)O[C@@H]1C[C@H](C)[C@@]23CC=C(C)[C@H](C2)C[C@@](C)(O)[C@@H]13
- MIC [1]: 0.125 µg/mL (≈ 0.449 µM)

SMILES: CCCCCC[C@H]1C(=O)O[C@H](C)[C@H](NC(=O)c2cccc(NC=O)c2O)C(=O)O[C@@H](C)[C@@H]1OC(C)=O
- MIC (Candida albicans): 5 µg/mL (≈ 9.87 µM)

SMILES: C/C=C/[C@H](O[C@H]1O[C@@H](CO)[C@H](O)[C@@H](O)[C@@H]1O)[C@H](C)/C=C(C)/C=C/C/C(C)=C/Cc1nc(OC)c(OC)c(O)c1C
- IC50 (HL-60 [2]): 1.3 µM
- IC50 (K562): 5.5 µM
- IC50 (ACHN [3]): 2.3 µM

SMILES: CC(C)[C@H](O)[C@@]12NC(=O)[C@H](C)[C@@H]1OC2=O [OMURALIDE]
- IC50 (20S proteasome): 0.049 µM

SMILES: Cc1ccc(OC(=O)CCN)cc1
- IC50 (SMMC-7721): 22 µg/mL (≈ 123 µM)

SMILES: CC[C@H](C)CCC[C@H]1CCCCC(=O)O1
- GI50 [4]: 0.11 µg/mL (≈ 0.518 µM)
- GI50 (HepG2): 0.11 µg/mL (≈ 0.518 µM)
- GI50 (MCF7): 0.11 µg/mL (≈ 0.518 µM)

SMILES: CCCCC[C@@H]1Cc2cc(O)c(C)c(O)c2C(=O)O1
- LC50 [5]: 7.7 µg/mL (≈ 29.1 µM)

SMILES: CC(C)[C@@H](C)/C=C\[C@@H](C)[C@@]1(C)C[C@H]2C3=C4[C@@H](C=C5C[C@@H](O)CC[C@]5(C)[C@H]4CC[C@@]31C)[C@H](C(=O)O)[C@H]2C(=O)O
- IC50 (RAW264.7): 3.6 µM
- IC50 [6]: 30.1 µM

SMILES: CCCCC[C@H]1C(=O)O[C@H](C)[C@H](NC(=O)c2cccc(NC=O)c2O)C(=O)O[C@@H](C)[C@@H]1OC(=O)[C@@H](C)C(C)C
- MIC (Candida albicans): 5 µg/mL (≈ 9.11 µM)

SMILES: CC[C@H]1/C=C/C[C@H](CC(C)C)OC(=O)/C(C)=C\[C@H]2C(=O)NC3=CC(=O)c4c(cc(C)c(O)c4C(=O)CC1)[C@@]32O
- IC50 (SGC-7901): 2.8 µM

SMILES: COc1cc(C)c2c(O)c3c(cc2c1)[C@@H](O)CCC3=O
- IC50 (HCT-116): 0.63 µM
- IC50 (SW-620): 0.63 µM

SMILES: CC(=O)C[C@]1(O)C(=O)C2=C3O[C@H](C)C(C)(C)[C@]3(O)C(=O)c3c(C)cc(O)c(c32)C1=O
- IC50 [7]: 11.3 µM

SMILES: COc1nc(C/C=C(\C)C/C(C)=C/C(C)=C/[C@@H](C)[C@@H](O)/C(C)=C/C(C)=O)cc(O)c1OC
- IC50 (ACHN [8]): 0.02 µM

SMILES: CC(=O)/C(=C\c1ccc(O)cc1)OC(Cc1c[nH]c2ccccc12)C(=O)O (centres undefined)
- IC50 [9]: 5.21 µM

SMILES: CC(=C\C(=O)O)/C=C(\C)CC(C)/C=C/CC[C@H]1OC(=O)[C@@H]1CO (some centres undefined)
- EC50 [10]: 38.1 µg/mL (≈ 118 µM)

SMILES: C/C=C/C1=CC(=O)[C@]2(C(=O)c3c(OC)cc(OC)cc3C(=O)OC)O[C@@H]2O1
- IC50 (HL-60 [11]): 3.7 µM
- IC50 (NCI-H1975): 3.7 µM

SMILES: COC1=C(CO)O[C@@H]2C[C@@]1(OC)n1c3ccccc3c3c4c(c5c6ccccc6n2c5c31)C(=O)NC4
- IC50 (A549): 5 µM
- IC50 (HL-60 [12]): 1.4 µM

SMILES: CC[C@H]1/C=C/C[C@H](CC(C)C)OC(=O)/C(C)=C\[C@@H]2C(=O)NC3=CC(=O)c4c(cc(C)c(O)c4C(=O)CC1)[C@@]32O
- IC50 (SGC-7901): 4.7 µM

SMILES: CC(=C\C(=O)O)/C=C(\C)CCCCCC[C@H]1OC(=O)[C@@H]1CO
- EC50 [10]: 42.3 µg/mL (≈ 136 µM)

SMILES: CC(C)[C@@H](C)/C=C/[C@@H](C)[C@H]1CC[C@H]2C3=CC(=O)N(CCO)C3=CC[C@]12C
- IC50 (NCI-H460): 7.8 µg/mL (≈ 21.8 µM)
- IC50 (MCF7): 7.5 µg/mL (≈ 21 µM)
- IC50 (SF-268): 7.9 µg/mL (≈ 22.1 µM)

SMILES: C=C(C(C)=O)[C@H](O)[C@H](C)/C=C(C)/C=C/C/C(C)=C/Cc1nc(OC)c(OC)c(O)c1C
- IC50 (OS-RC-2): 2.2 µM

SMILES: CC(C)CCC[C@H]1CCCCC(=O)O1
- GI50 [4]: 0.11 µg/mL (≈ 0.555 µM)
- GI50 (HepG2): 0.11 µg/mL (≈ 0.555 µM)
- GI50 (MCF7): 0.11 µg/mL (≈ 0.555 µM)
